Tested on: Botrytis cinerea
Assay: Test H: tomato Botrytis, test suspension sprayed on tomato seedlings, disease rating
Type: in vivo
Conditions: 200 ppm test suspension

In order of falling “Test H disease control rating” value:
1. c1cc(-c2c(-c3ccsc3)nn3c2CCCC3)nc(NC2CC2)n1 [compound 180]  96%
2. CNc1nccc(-c2c(-c3cccc(C)c3)nn3c2CCCC3)n1 [compound 187]  92%
3. COc1cc(Nc2nccc(-c3c(-c4ccccc4)nn4c3CCCC4)n2)ccc1F [compound 182]  81%
4. CCNc1nccc(-c2c(-c3ccccc3)nn3c2COCC3)n1 [compound 183]  81%

Tested on: Phytophthora infestans
Assay: whole plant or invertebrate
Type: in vivo
Conditions: 200 ppm test suspension

In order of falling “Test J disease control rating” value:
1. Fc1ccc(-c2nn3c(c2-c2ccnc(N4CCC4)n2)CCCC3)cc1 [compound 82]  99%
2. Fc1ccccc1-c1nn2c(c1-c1ccnc(NC3CC3)n1)CCC2 [compound 99]  99%
3. Fc1cccc(-c2nn3c(c2-c2ccnc(NC4CC4)n2)CCC3)c1 [compound 103]  99%
4. COCC(C)Nc1nccc(-c2c(-c3ccccc3F)nn3c2CCC3)n1 (stereo not shown) [compound 96]  98%
5. COCC(C)Nc1nccc(-c2c(-c3cccc(F)c3)nn3c2CCC3)n1 (stereo not shown) [compound 100]  98%
6. CC(C)Nc1nccc(-c2c(-c3ccccc3F)nn3c2CCC3)n1 [compound 97]  96%
7. CC(C)Nc1nccc(-c2c(-c3cccc(F)c3)nn3c2CCC3)n1 [compound 102]  96%
8. CC(C)CNc1nccc(-c2c(-c3ccccc3F)nn3c2CCC3)n1 [compound 98]  88%
9. Fc1cc(F)cc(-c2nn3c(c2-c2ccnc(NC4CC4)n2)CCC3)c1 [compound 104]  88%
10. CCC(C)Nc1nccc(-c2c(-c3cccc(F)c3)nn3c2CCC3)n1 (stereo not shown) [compound 101]  57%

Tested on: Erysiphe graminis f. sp. tritici
Assay: Test A: wheat powdery mildew, test suspension sprayed on wheat seedlings, disease rating
Type: in vivo
Conditions: 200 ppm test suspension; 100 = 100% disease control, 0 = no control

In order of falling “Test A disease control rating” value:
1. COc1cc(Nc2nccc(-c3c(-c4ccccc4)nn4c3CCCC4)n2)ccc1F [compound 182]  92%
2. Fc1cccc(-c2nn3c(c2-c2ccnc(NC4CC4)n2)CCC3)c1 [compound 103]  85%
3. Fc1ccc(-c2nn3c(c2-c2ccnc(N4CCC4)n2)CCCC3)cc1 [compound 82]  81%
4. c1cc(-c2c(-c3ccsc3)nn3c2CCCC3)nc(NC2CC2)n1 [compound 180]  79%
5. CNc1nccc(-c2c(-c3cccc(C)c3)nn3c2CCCC3)n1 [compound 187]  79%
6. CC(C)Nc1nccc(-c2c(-c3cccc(F)c3)nn3c2CCC3)n1 [compound 102]  73%
7. COCC(C)Nc1nccc(-c2c(-c3ccccc3F)nn3c2CCC3)n1 (stereo not shown) [compound 96]  0%
8. CC(C)Nc1nccc(-c2c(-c3ccccc3F)nn3c2CCC3)n1 [compound 97]  0%
9. CC(C)CNc1nccc(-c2c(-c3ccccc3F)nn3c2CCC3)n1 [compound 98]  0%
10. Fc1ccccc1-c1nn2c(c1-c1ccnc(NC3CC3)n1)CCC2 [compound 99]  0%
11. COCC(C)Nc1nccc(-c2c(-c3cccc(F)c3)nn3c2CCC3)n1 (stereo not shown) [compound 100]  0%
12. CCC(C)Nc1nccc(-c2c(-c3cccc(F)c3)nn3c2CCC3)n1 (stereo not shown) [compound 101]  0%
13. Fc1cc(F)cc(-c2nn3c(c2-c2ccnc(NC4CC4)n2)CCC3)c1 [compound 104]  0%

Tested on: Pythium aphanidermatum
Assay: Test L: bluegrass pythium blight, test suspension sprayed on bluegrass seedlings, disease rating;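 note: 200 ppm unless marked * meaning 40 ppm or ** meaning 10 ppm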
Type: in vivo
Conditions: 200 ppm test suspension

In order of rising “Test L disease control rating” value:
1. Fc1ccc(-c2nn3c(c2-c2ccnc(N4CCC4)n2)CCCC3)cc1 [compound 82]  0%
2. COCC(C)Nc1nccc(-c2c(-c3ccccc3F)nn3c2CCC3)n1 (stereo not shown) [compound 96]  83%
3. CCC(C)Nc1nccc(-c2c(-c3cccc(F)c3)nn3c2CCC3)n1 (stereo not shown) [compound 101]  91%
4. Fc1cc(F)cc(-c2nn3c(c2-c2ccnc(NC4CC4)n2)CCC3)c1 [compound 104]  91%
5. CC(C)CNc1nccc(-c2c(-c3ccccc3F)nn3c2CCC3)n1 [compound 98]  99%
6. CC(C)Nc1nccc(-c2c(-c3cccc(F)c3)nn3c2CCC3)n1 [compound 102]  99%
7. CC(C)Nc1nccc(-c2c(-c3ccccc3F)nn3c2CCC3)n1 [compound 97]  100%
8. Fc1ccccc1-c1nn2c(c1-c1ccnc(NC3CC3)n1)CCC2 [compound 99]  100%
9. COCC(C)Nc1nccc(-c2c(-c3cccc(F)c3)nn3c2CCC3)n1 (stereo not shown) [compound 100]  100%
10. Fc1cccc(-c2nn3c(c2-c2ccnc(NC4CC4)n2)CCC3)c1 [compound 103]  100%

Tested on: Puccinia recondite f sp. tritici
Assay: Test B: wheat leaf rust, test suspension sprayed on wheat seedlings, disease rating;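 note: 200 ppm unless marked * meaning 40 ppm or ** meaning 10 ppm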
Type: in vivo
Conditions: 200 ppm test suspension

In order of falling “Test B disease control rating” value:
1. CCNc1nccc(-c2c(-c3ccccc3)nn3c2COCC3)n1 [compound 183]  100%
2. c1cc(-c2c(-c3ccsc3)nn3c2CCCC3)nc(NC2CC2)n1 [compound 180]  99%
3. CNc1nccc(-c2c(-c3cccc(C)c3)nn3c2CCCC3)n1 [compound 187]  99%
4. Fc1cccc(-c2nn3c(c2-c2ccnc(NC4CC4)n2)CCC3)c1 [compound 103]  95%
5. Fc1ccccc1-c1nn2c(c1-c1ccnc(NC3CC3)n1)CCC2 [compound 99]  94%
6. CC(C)Nc1nccc(-c2c(-c3cccc(F)c3)nn3c2CCC3)n1 [compound 102]  92%
7. Fc1ccc(-c2nn3c(c2-c2ccnc(N4CCC4)n2)CCCC3)cc1 [compound 82]  91%
8. COCC(C)Nc1nccc(-c2c(-c3cccc(F)c3)nn3c2CCC3)n1 (stereo not shown) [compound 100]  89%
9. CCC(C)Nc1nccc(-c2c(-c3cccc(F)c3)nn3c2CCC3)n1 (stereo not shown) [compound 101]  89%
10. COc1cc(Nc2nccc(-c3c(-c4ccccc4)nn4c3CCCC4)n2)ccc1F [compound 182]  77%
11. CC(C)CNc1nccc(-c2c(-c3ccccc3F)nn3c2CCC3)n1 [compound 98]  74%
12. CC(C)Nc1nccc(-c2c(-c3ccccc3F)nn3c2CCC3)n1 [compound 97]  55%
13. COCC(C)Nc1nccc(-c2c(-c3ccccc3F)nn3c2CCC3)n1 (stereo not shown) [compound 96]  19%
14. Fc1cc(F)cc(-c2nn3c(c2-c2ccnc(NC4CC4)n2)CCC3)c1 [compound 104]  0%

Tested on: Fusarium graminearum
Assay: whole plant or invertebrate
Type: in vivo
Conditions: 200 ppm test suspension

In order of falling “Test C disease control rating” value:
1. CC(C)Nc1nccc(-c2c(-c3ccccc3F)nn3c2CCC3)n1 [compound 97]  100%
2. CC(C)Nc1nccc(-c2c(-c3cccc(F)c3)nn3c2CCC3)n1 [compound 102]  100%
3. Fc1ccccc1-c1nn2c(c1-c1ccnc(NC3CC3)n1)CCC2 [compound 99]  99%
4. COCC(C)Nc1nccc(-c2c(-c3cccc(F)c3)nn3c2CCC3)n1 (stereo not shown) [compound 100]  99%
5. CCC(C)Nc1nccc(-c2c(-c3cccc(F)c3)nn3c2CCC3)n1 (stereo not shown) [compound 101]  99%
6. Fc1cccc(-c2nn3c(c2-c2ccnc(NC4CC4)n2)CCC3)c1 [compound 103]  99%
7. CCNc1nccc(-c2c(-c3ccccc3)nn3c2COCC3)n1 [compound 183]  99%
8. CC(C)CNc1nccc(-c2c(-c3ccccc3F)nn3c2CCC3)n1 [compound 98]  97%
9. Fc1ccc(-c2nn3c(c2-c2ccnc(N4CCC4)n2)CCCC3)cc1 [compound 82]  96%
10. COCC(C)Nc1nccc(-c2c(-c3ccccc3F)nn3c2CCC3)n1 (stereo not shown) [compound 96]  96%
11. c1cc(-c2c(-c3ccsc3)nn3c2CCCC3)nc(NC2CC2)n1 [compound 180]  96%
12. Fc1cc(F)cc(-c2nn3c(c2-c2ccnc(NC4CC4)n2)CCC3)c1 [compound 104]  55%

Tested on: Septoria nodorum
Assay: Test D: wheat glume blotch, test suspension sprayed on wheat seedlings, disease rating
Type: in vivo
Conditions: 200 ppm test suspension

In order of rising “Test D disease control rating” value:
1. COCC(C)Nc1nccc(-c2c(-c3ccccc3F)nn3c2CCC3)n1 (stereo not shown) [compound 96]  0%
2. Fc1cc(F)cc(-c2nn3c(c2-c2ccnc(NC4CC4)n2)CCC3)c1 [compound 104]  0%
3. Fc1ccc(-c2nn3c(c2-c2ccnc(N4CCC4)n2)CCCC3)cc1 [compound 82]  60%
4. CC(C)Nc1nccc(-c2c(-c3ccccc3F)nn3c2CCC3)n1 [compound 97]  82%
5. CC(C)CNc1nccc(-c2c(-c3ccccc3F)nn3c2CCC3)n1 [compound 98]  82%
6. Fc1ccccc1-c1nn2c(c1-c1ccnc(NC3CC3)n1)CCC2 [compound 99]  89%
7. COCC(C)Nc1nccc(-c2c(-c3cccc(F)c3)nn3c2CCC3)n1 (stereo not shown) [compound 100]  90%
8. CCC(C)Nc1nccc(-c2c(-c3cccc(F)c3)nn3c2CCC3)n1 (stereo not shown) [compound 101]  92%
9. CNc1nccc(-c2c(-c3cccc(C)c3)nn3c2CCCC3)n1 [compound 187]  92%
10. CC(C)Nc1nccc(-c2c(-c3cccc(F)c3)nn3c2CCC3)n1 [compound 102]  97%
11. COc1cc(Nc2nccc(-c3c(-c4ccccc4)nn4c3CCCC4)n2)ccc1F [compound 182]  97%
12. CCNc1nccc(-c2c(-c3ccccc3)nn3c2COCC3)n1 [compound 183]  97%
13. c1cc(-c2c(-c3ccsc3)nn3c2CCCC3)nc(NC2CC2)n1 [compound 180]  98%
14. Fc1cccc(-c2nn3c(c2-c2ccnc(NC4CC4)n2)CCC3)c1 [compound 103]  99%

Tested on: Septoria tritici
Assay: Test E: wheat leaf blotch, test suspension sprayed on wheat seedlings, disease rating;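 note: 200 ppm unless marked * meaning 40 ppm or ** meaning 10 ppm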
Type: in vivo
Conditions: 200 ppm test suspension

In order of falling “Test E disease control rating” value:
1. CC(C)Nc1nccc(-c2c(-c3cccc(F)c3)nn3c2CCC3)n1 [compound 102]  100%
2. Fc1cccc(-c2nn3c(c2-c2ccnc(NC4CC4)n2)CCC3)c1 [compound 103]  100%
3. c1cc(-c2c(-c3ccsc3)nn3c2CCCC3)nc(NC2CC2)n1 [compound 180]  100%
4. COc1cc(Nc2nccc(-c3c(-c4ccccc4)nn4c3CCCC4)n2)ccc1F [compound 182]  100%
5. CCNc1nccc(-c2c(-c3ccccc3)nn3c2COCC3)n1 [compound 183]  100%
6. CNc1nccc(-c2c(-c3cccc(C)c3)nn3c2CCCC3)n1 [compound 187]  99%
7. Fc1ccccc1-c1nn2c(c1-c1ccnc(NC3CC3)n1)CCC2 [compound 99]  98%
8. Fc1ccc(-c2nn3c(c2-c2ccnc(N4CCC4)n2)CCCC3)cc1 [compound 82]  97%
9. CC(C)CNc1nccc(-c2c(-c3ccccc3F)nn3c2CCC3)n1 [compound 98]  95%
10. CCC(C)Nc1nccc(-c2c(-c3cccc(F)c3)nn3c2CCC3)n1 (stereo not shown) [compound 101]  94%
11. COCC(C)Nc1nccc(-c2c(-c3cccc(F)c3)nn3c2CCC3)n1 (stereo not shown) [compound 100]  92%
12. Fc1cc(F)cc(-c2nn3c(c2-c2ccnc(NC4CC4)n2)CCC3)c1 [compound 104]  88%
13. COCC(C)Nc1nccc(-c2c(-c3ccccc3F)nn3c2CCC3)n1 (stereo not shown) [compound 96]  62%
14. CC(C)Nc1nccc(-c2c(-c3ccccc3F)nn3c2CCC3)n1 [compound 97]  61%
